# In paper PMC4465654, “Multi-Leu PACE4 Inhibitor Retention within Cells Is PACE4 Dependent and a Prerequisite for Antiproliferative Activity” (BioMed Research International, 2015):
# Entries after “also recorded” stand apart in the source; their conditions may differ. Read-outs that look alike come from different tables or passages of the source. Where a SMILES comes first, the peptide text is derived from it.
# Tests used:
# [1] = test system: HepG2 cells; test: MTT cell proliferation assay, HepG2; type: cell-based; settings: 72 h, serum-free medium, 1 μM to 300 μM, means of at least 3 independent experiments (Figure 5a)
# Experimental: (§1) To evaluate peptide growth inhibitory properties, 3000 (Huh7) and 4000 (HepG2) cells were seeded in triplicate in 96-well plates. After 24 h, media was changed for serum-free medium and increasing concentrations of peptide were added. After 72 h, 25 μL of 3-(4,5-Dimethylthiazol-2-yl)-2,5-diphenyltetrazolium bromide (MTT) reagent (5 mg/mL; Sigma Aldrich) was added to each well and, after 4-hour incubation, medium was carefully removed and cells were lysed in acidic isopropanol (24 : 1 HCl 1 N). Absorbance at 550 nm and 650 nm (reference wavelength) was measured using a plate spectrophotometer.
# (§2) Figure 5 Antiproliferative properties of ML peptide on the tested cell lines. […] Data are means ± SEM of at least 3 independent experiments.
# [2] = test system: Huh7 cells; test: MTT cell proliferation assay, Huh7; type: cell-based; settings: 72 h, serum-free medium, 1 μM to 300 μM, means of at least 3 independent experiments (Figure 5b)
# Experimental: as §1, §2
# [3] = test system: HT1080 cells; test: MTT cell proliferation assay, HT1080; type: cell-based; settings: 72 h, serum-free medium, 1 μM to 300 μM, means of at least 3 independent experiments (Figure 5c)
# [4] = molecular target: recombinant PACE4; settings: in vitro inhibition, read-out: K i against recombinant PACE4, cited from earlier work
SMILES,inhibition of cell proliferation relative to untreated cells [1],inhibition of cell proliferation relative to untreated cells [2],inhibition of cell proliferation relative to untreated cells [3],Ki ([4]; independently of the addition of the NOTA moiety),Ki [4]
"CC(=O)N[C@@H](CC(C)C)C(=O)N[C@@H](CC(C)C)C(=O)N[C@@H](CC(C)C)C(=O)N[C@@H](CC(C)C)C(=O)N[C@@H](CCCNC(=N)N)C(=O)N[C@H](C(=O)N[C@@H](CCCCN)C(=O)N[C@@H](CCCNC(=N)N)C(N)=O)C(C)C [ML peptide, Ac-LLLLRVKR-NH2] (Ac-LLLLRVKR-NH2)",dose-response inhibition of cell proliferation,dose-response inhibition of cell proliferation,dose-response inhibition of cell proliferation; also recorded: lowest response,20 nM,
"CC(=O)N[C@@H](CCCNC(=N)N)C(=O)N[C@@H](CC(C)C)C(=O)N[C@@H](CCCNC(=N)N)C(=O)N[C@@H](CC(C)C)C(=O)N[C@@H](CC(C)C)C(=O)N[C@@H](CCCCN)C(=O)N[C@H](C(=O)N[C@@H](CC(C)C)C(N)=O)C(C)C [scramble version of the ML peptide, Ac-RLRLLKVL-NH2, reference compound] (Ac-RLRLLKVL-NH2)",inactive,inactive,inactive,,> 10000 nM
